Data reported in patent publication US4567175A, “8-Chloro-1,5-benzothiazepine derivatives” (Tanabe Seiyaku Co., Ltd., priority 1983, dated 1986).

Experiments:
platelet aggregation = experiment: Platelet aggregation-inhibiting activity, collagen-induced aggregation in rat platelet-rich plasma, Born's method (Experiment 5); format: cell-based, male Sprague-Dawley rats; set-up: key: -: less than 10% inhibition of platelet aggregation; +: not less than 10% inhibition of platelet aggregation but said percentage inhibition was lower than that of acetylsalicylic acid (100 μg/ml); ++: platelet aggregation-inhibiting activity at least as strong as that of acetylsalicylic acid (100 μg/ml); details: final concentration 100 μg/ml, rat PRP, 37° C.
Description: Blood was collected from the abdominal aorta of male Sprague-Dawley rats which were anesthetized with ether. Nine volumes of rat blood were mixed with one volume of an aqueous trisodium citrate solution, and the mixture was centrifuged to give platelet-rich plasma ("PRP") as the supernatant solution. The bottom layer was further centrifuged to give platelet-poor plasma ("PPP") as the supernatant solution. Platelet counts were adjusted to 0.8-1×10^6 /mm^3 for PRP by dilution with PPP. After a mixture of 200 μl of the diluted PRP and 25 μl of a test compound solution (final concentration: 100 μg/ml) was stirred for 2 minutes at 37° C., 25 μl of a collagen solution [Biochim. Biophys. Acta, 186, page 254(1969)] were added thereto. The degree of platelet aggregation was estimated by Born's method [Nature, 194, page 927(1962)] and the percentage inhibition of platelet aggregation was calculated therefrom.

[1] = test system: isolated heart of guinea pig; experiment: Coronary vasodilating activity: Langendorff's method, coronary blood flow of isolated guinea pig heart (Experiment 4); details: for Coronary vasodilating activity (increase in coronary blood flow): isolated guinea pig heart, Langendorff, 30° C.
Method: Langendorff's method was used for testing the effect on the coronary blood flow of the isolated heart of guinea pig (about 280 g). The isolated heart was perfused with Locke-Ringer solution containing 2% of defibrinated rabbit blood, which had been saturated with a mixed gas of 95% O2 and 5% CO2 (30° C.). Perfusion pressure was kept at 40 cm H2 O. A solution of a test compound in an aqueous 5% glucose solution was injected into the perfusing solution at a volume of 0.1 ml per heart. The overflow of the perfusate was measured by means of a drop counter.
The coronary vasodilating activity of the test compound was expressed as "±" if the increase in coronary blood flow is less than 0.5 ml/minute at a dose of 100 μg/heart; "+" if the increase is not less than 0.5 ml/minute at a dose of 100 μg/heart; "++" if the increase is not less than 0.5 ml/minute at a dose of 30 μg/heart; and "+++" if the increase is not less than 0.5 ml/minute at a dose of not more than 10 μg/heart.

[2] = test system: spontaneously hypertensive rats (SHR); experiment: Hypotensive activity, oral administration to SHR, systolic blood pressure by tail plethysmography (Experiment 1); format: in vivo; details: 30 mg/kg oral
Method: A test compound (dose: 30 mg/kg) dissolved or suspended in water was administered orally to spontaneously hypertensive rats (SHR) (one group: 3 rats) fasted overnight. The systolic blood pressure of the rats was measured by the tail plethysmographic technique (The Journal of Laboratory and Clinical Medicine 78(1971), page 957). The hypotensive activity of the test compound was estimated at one or 4 hours after dosing and expressed as "-" if the decrease in blood pressure is less than 10 mm Hg; "+" if the decrease is not less than 10 mm Hg but less than 20 mm Hg; "++" if the decrease is not less than 20 mm Hg but less than 40 mm Hg; "+++" if the decrease is not less than 40 mm Hg but less than 60 mm Hg; or "++++" if the decrease is not less than 60 mm Hg.

vertebral artery [3] = experiment: Cerebral vasodilating activity: vertebral artery blood flow in anesthetized dogs, intraarterial injection, potency ratio to papaverine (Experiment 2); format: in vivo; details: for Cerebral vasodilating activity (potency ratio): injected into vertebral artery, potency ratio to papaverine from dose-response curves; for increase in vertebral artery blood flow (in words) / cerebral vasodilating activity, times stronger than the 7-chloro derivative: intraarterial; for cerebral vasodilating activity, times stronger than the 7-chloro derivative: versus (+)-cis-...-7-chloro-... hydrochloride (so in the source)
Method: On the other hand, when the coronary vasodilating activity is estimated by the Langendorff method using isolated hearts of guinea pigs, said activity of (+)-cis-2-(4-methoxyphenyl)-3-acetoxy-5-[2-(dimethylamino)ethyl]-8-chloro- 2,3-dihydro-1,5-benzothiazepin-4(5H)-one hydrochloride is about 10 times stronger than that of papaverine.
Male dogs weighing 10 to 20 kg were anesthetized with sodium pentobarbital (30 mg/kg, intravenous injection). The blood flow in vertebral artery was measured continuously by means of an electromagnetic flowmeter under artificial respiration. A test compound dissolved in an aqueous 5% glucose solution was injected into vertebral artery. The cerebral vasodilating activity of the test compound was estimated in terms of the potency ratio of said compound to papaverine, which was calculated from the dose-response curves thereof.

vertebral artery [4] = experiment: Cerebral vasodilating activity: increase in vertebral artery blood flow in anesthetized dogs after femoral vein injection (Experiment 3); format: in vivo; details: 200 μg/kg into femoral vein
Method: Male dogs weighing about 20-24 kg (one group: 2 dogs) were anesthetized with sodium pentobarbital (35 mg/kg, intravenous injection). The blood flow in vertebral artery was measured by means of an electromagnetic flowmeter under artificial respiration. A test compound (i.e., (+)-cis-2-(4-methoxyphenyl)-3-acetoxy-5-[2-(dimethylamino)ethyl]-8-chloro- 2,3-dihydro-1,5-benzothiazepin-4(5H)-one hydrochloride) in a physiological saline solution was injected into the femoral vein at a dose of 200 μg/kg. The cerebral vasodilating activity of the test compound was estimated in terms of "increase (Δml/minute) in vertebral artery blood flow" which was calculated by subtracting "the blood flow measured immediately before injection of test compound" from "the blood flow measured at a period of time after injection of test compound".

[5] = Acute toxicity (LD50), oral administration to mice; details: mouse, in vivo
Method: For example, the acute toxicity (LD50) of (+)-cis-2-(4-methoxyphenyl)-3-acetoxy-5-[2-(dimethylamino)ethyl]-8-chloro- 2,3-dihydro-1,5-benzothiazepin-4(5H)-one hydrochloride when orally administered to mice is more than 1000 mg/kg.

| Compound | Platelet aggregation-inhibiting activity (platelet aggregation) | Coronary vasodilating activity (increase in coronary blood flow) [1] | Hypotensive activity (decrease in blood pressure), 1 hr after dosing [2] | Hypotensive activity (decrease in blood pressure), 4 hrs after dosing [2] | Cerebral vasodilating activity (potency ratio) (vertebral artery [3]) | other results |
| --- | --- | --- | --- | --- | --- | --- |
| CCN(CC)CCN1C(=O)[C@H](OC(C)=O)[C@H](c2ccc(OC)cc2)Sc2cc(Cl)ccc21.O=C(O)C(=O)O (single isomer, unassigned) [(+)-cis-2-(4-methoxyphenyl)-3-acetoxy-5-[2-(diethylamino)ethyl]-8-chloro-2,3-dihydro-1,5-benzothiazepin-4(5H)-one oxalate] | ++ | – | – | – | – | – |
| COc1ccc([C@@H]2Sc3cc(Cl)ccc3N(CCN(C)C)C(=O)[C@@H]2OC(C)=O)cc1.Cl (racemic) [(±)-cis-2-(4-methoxyphenyl)-3-acetoxy-5-[2-(dimethylamino)ethyl]-8-chloro-2,3-dihydro-1,5-benzothiazepin-4(5H)-one hydrochloride] | ++ | +++ (increase is not less than 0.5 ml/minute at a dose of not more than 10 μg/heart) | ++ (decrease is not less than 20 mm Hg but less than 40 mm Hg) | ++++ (decrease is not less than 60 mm Hg) | – | – |
| COc1ccc([C@@H]2Sc3cc(Cl)ccc3N(CCN(C)C)C(=O)[C@@H]2OC(C)=O)cc1.O=C(O)/C=C\C(=O)O (single isomer, unassigned) [(+)-cis-2-(4-methoxyphenyl)-3-acetoxy-5-[2-(dimethylamino)ethyl]-8-chloro-2,3-dihydro-1,5-benzothiazepin-4(5H)-one maleate] | – | – | ++++ (decrease is not less than 60 mm Hg) | ++++ (decrease is not less than 60 mm Hg) | – | decrease in blood pressure, 4 hours after administration ([2]; 4 hours): ~68 mm Hg; decrease in blood pressure, one hour after administration ([2]; one hour): about 86 mm Hg |
| COc1ccc([C@@H]2Sc3cc(Cl)ccc3N(CCN(C)C)C(=O)[C@@H]2O)cc1.O=C(O)C(=O)O (single isomer, unassigned) [(+)-cis-2-(4-methoxyphenyl)-3-hydroxy-5-[2-(dimethylamino)ethyl]-8-chloro-2,3-dihydro-1,5-benzothiazepin-4(5H)-one oxalate] | ++ | – | – | – | – | – |
| COc1ccc([C@@H]2Sc3cc(Cl)ccc3N(CCN(C)C)C(=O)[C@@H]2OC(C)=O)cc1.Cl (single isomer, unassigned) [(+)-cis-2-(4-methoxyphenyl)-3-acetoxy-5-[2-(dimethylamino)ethyl]-8-chloro-2,3-dihydro-1,5-benzothiazepin-4(5H)-one hydrochloride] | – | +++ (increase is not less than 0.5 ml/minute at a dose of not more than 10 μg/heart) | – | – | 25 | increase in vertebral artery blood flow (in words) (vertebral artery [3]): remarkable increase; cerebral vasodilating activity, times stronger than the 7-chloro derivative (vertebral artery [3]): about 5 times; coronary vasodilating activity, times stronger than papaverine ([1]; Langendorff method, isolated hearts of guinea pigs, versus papaverine): about 10 times; Increase in vertebral artery blood flow, 1 minute (vertebral artery [4]; 1 minute after injection): 58 Δml/minute; Increase in vertebral artery blood flow, 3 minutes (vertebral artery [4]; 3 minutes after injection): 53 Δml/minute; Increase in vertebral artery blood flow, 5 minutes (vertebral artery [4]; 5 minutes after injection): 52 Δml/minute; Increase in vertebral artery blood flow, 10 minutes (vertebral artery [4]; 10 minutes after injection): 38 Δml/minute; Increase in vertebral artery blood flow, 20 minutes (vertebral artery [4]; 20 minutes after injection): 21 Δml/minute; Increase in vertebral artery blood flow, 30 minutes (vertebral artery [4]; 30 minutes after injection): 14 Δml/minute; LD50 [5]: > 1000 mg/kg |
| COc1ccc(Cc2nccc3cc(OC)c(OC)cc23)cc1OC [Papaverine, reference compound] | – | + (increase is not less than 0.5 ml/minute at a dose of 100 μg/heart) | – | – | – | – |
| CCC(=O)O[C@H]1C(=O)N(CCN(C)C)c2ccc(Cl)cc2S[C@H]1c1ccc(OC)cc1.O=C(O)C(=O)O (single isomer, unassigned) [(+)-cis-2-(4-methoxyphenyl)-3-propionyloxy-5-[2-(dimethylamino)ethyl]-8-chloro-2,3-dihydro-1,5-benzothiazepin-4(5H)-one oxalate] | ++ | – | – | – | 23.7 | increase in vertebral artery blood flow (in words) (vertebral artery [3]): remarkable increase; cerebral vasodilating activity, times stronger than the 7-chloro derivative (vertebral artery [3]): about 5 times |
| COc1ccc([C@@H]2Sc3ccc(Cl)cc3N(CCN(C)C)C(=O)[C@@H]2OC(C)=O)cc1.Cl (racemic) [(±)-cis-2-(4-methoxyphenyl)-3-acetoxy-5-[2-(dimethylamino)ethyl]-7-chloro-2,3-dihydro-1,5-benzothiazepin-4(5H)-one hydrochloride, reference compound] | – | – | - (decrease in blood pressure is less than 10 mm Hg) | ++ (decrease is not less than 20 mm Hg but less than 40 mm Hg) | 5 | – |
| CCN(C)CCN1C(=O)[C@H](OC(C)=O)[C@H](c2ccc(OC)cc2)Sc2cc(Cl)ccc21.Cl (racemic) [(±)-cis-2-(4-methoxyphenyl)-3-acetoxy-5-[2-(N-methyl-N-ethylamino)ethyl]-8-chloro-2,3-dihydro-1,5-benzothiazepin-4(5H)-one hydrochloride] | – | – | +++ (decrease is not less than 40 mm Hg but less than 60 mm Hg) | +++ (decrease is not less than 40 mm Hg but less than 60 mm Hg) | – | – |
| CCCN(C)CCN1C(=O)[C@H](OC(C)=O)[C@H](c2ccc(OC)cc2)Sc2cc(Cl)ccc21.O=C(O)C(=O)O (racemic) [(±)-cis-2-(4-methoxyphenyl)-3-acetoxy-5-[2-(N-methyl-N-n-propylamino)ethyl]-8-chloro-2,3-dihydro-1,5-benzothiazepin-4(5H)-one oxalate] | ++ | +++ (increase is not less than 0.5 ml/minute at a dose of not more than 10 μg/heart) | – | – | – | – |
